Key:
[1] = Continuous real-time in vivo measurement of drug levels in blood with membrane-protected EAB sensors in the jugular vein of rats; details: anesthetized Sprague-Dawley rats, after each injection
Procedure: (§1) All in vivo measurements were performed using a two-electrode setup in which the reference and counter electrodes were a silver wire coated with a silver chloride film as described above. The measurements carried out in vivo were recorded using a handheld potentiostat.
(§2) In vivo Experiments Animals. Adult male Sprague-Dawley rats (300-500 g) were pair housed in a temperature and humidity controlled vivarium on a 12-h light-dark cycle and provided ad libitum access to food and water. All animal procedures were consistent with the guidelines of the NIH Guide for Care and Use of Laboratory Animals.
(§3) Surgery. For the anesthetized preparation, rats were anesthetized using isoflurane gas inhalation (2.5%) and monitored throughout the experiment using a pulse oximeter to measure heart rate and % SpO2 to insure depth of anesthesia. After exposing both ventral jugular veins, a simple catheter made from a [sequence] tube (Dow Corning, Midland, Mich., USA) fitted with a steel cannula was implanted into the left jugular vein. 0.1-0.3 mL of heparin (1000 U/mL) were immediately infused through the catheter to prevent blood clotting. The sensor was inserted into the right jugular vein and secured in place with surgical suture.
(§4) Measurements. A 30-minute sensor baseline was established before the first drug infusion. For anesthetized animals, a 3 mL syringe filled with the target drug was connected to the sensor-free catheter (placed in the jugular opposite that in which the sensor is emplaced) and placed in a motorized syringe pump. After establishing a stable baseline, the target drug was infused through this catheter at a rate of 0.2 mL/min. Target drugs included kanamycin (0.1 M solution), gentamicin (10 mg/mL), tobramycin (0.1 M solution), and doxorubicin (1.0 mM). After drug infusion, recordings were taken for up to 2 hours before the next infusion.
(§5) Sensors were fabricated using an aptamer recognizing the aminoglycoside antibiotics. Using these sensors, monotonically increasing intravenous doses of kanamycin were administered spanning the therapeutic ranges used in humans (10-30 mg/kg) and animals (25-30 mg/kg).
(§6) The pharmacokinetics of tobramycin were monitored following sequential 20 mg/kg intravenous injections conducted 2 hours apart in each of three rats.

in vivo = details: male, Sprague-Dawley, rat
Procedure: as §1, §2, §3, §4, §5, §6

[2] = male, Sprague-Dawley, rat, in vivo, iv
Procedure: as §1, §2, §3, §4, §5, §6

time to effective clearance of 90% of the drug from the circulatory system [1]	Cmax (in vivo)	maximum concentrations depending on the delivered dose [2]	maximum concentration observed ([2]; 10 mg/kg)	SMILES
≤ 50 min	~600 nM			COc1cccc2c1C(=O)c1c(O)c3c(c(O)c1C2=O)C[C@@](O)(C(=O)CO)C[C@@H]3O[C@H]1C[C@H](N)[C@H](O)[C@H](C)O1 [DOX, doxorubicin]
		34 to 400 µM	200 µM	NC[C@H]1O[C@H](O[C@H]2[C@H](O)[C@@H](O[C@H]3O[C@H](CO)[C@@H](O)[C@H](N)[C@H]3O)[C@H](N)C[C@@H]2N)[C@H](O)[C@@H](O)[C@@H]1O [kanamycin]

From patent US20190101551A1, “Real-time and Continuous Measurement in Vivo Using Aptamer-Based Biosensors” (The Regents of the University of California, priority 2016, published 2019)
